One series relates to Macromiidae. The settings on record: acute; duration: 72 hours; biomass.
The subject of the next series is Daphnia magna. The settings on record: chronic/long-term; duration: 21 days; reproduction.
For a further series, the system named is Pleurozium sp. The settings on record: chronic/long-term; duration: 120 hours; growth.
The test system of the next series is Rattus norvegicus. The settings on record: for LD50: acute, mortality.
Another series deals with Cyprinus carpio. The settings on record: acute; duration: 96 hours; mortality.
In another series the test system is Lepomis macrochirus. The settings on record: acute; duration: 96 hours; mortality.
The next series relates to Tagia sp. The settings on record: acute; duration: 14 days; mortality.
In the next series the test system is Oryctolagus sp. The settings on record: developmental; development.
A further series relates to Landoltia sp. The settings on record: acute; duration: 14 days; frond number.
The test system of a further series is Apis mellifera. The settings on record: acute; duration: 48 hours; dermal; mortality.
In a further series the test system is Canidae. The settings on record: subchronic; duration: 90 days; oral; Dog Other; histopathology: nonneoplastic.
The subject of the next series is Pimephales promelas. The settings on record: chronic/long-term; duration: 37 days; growth.
The subject of a further series is Poecilus cupreus. Briefly: LR50; higher = less toxic. The settings on record: acute; mortality.

Some results are limits rather than exact numbers.

Consider `COc1nc(C)nc(NC(=O)NS(=O)(=O)c2ccccc2CCC(F)(F)F)n1` [Prosulfuron], for which the NOEC is 0.831 mg/L in the series on Macromiidae; 148 mg/L in the series on Daphnia magna; 0.00278 mg/L in the series with Pleurozium sp.; 5.8 mg/L in the series on Oncorhynchus mykiss (chronic/long-term, duration: 21 days, growth); 0.000827 mg/L in the series on Landoltia sp.; 150 mg/L with Pimephales promelas. The LD50 in the series with Rattus norvegicus (M/F) is 986 mg/kg; in the series on Rattus norvegicus, more than 755 mg/kg; in the series with Anas platyrhynchos (acute, oral, unspecified, mortality), 1300 mg/kg; in the series on Apis mellifera it was more than 100 µg/piece. Moreover, the NOAEL was 12 mg/kg-day in the series on Rattus norvegicus (chronic); 1.7 mg/kg-day in the series on Rattus norvegicus (chronic, duration: 18 months, histopathology: nonneoplastic); 3 mg/kg-day with Rattus norvegicus (subchronic, duration: 90 days); 10 mg/kg-day with Oryctolagus sp.; 6 mg/kg-day in the series on Canidae. Also, the LC50 in the series on Oncorhynchus mykiss (acute, duration: 96 hours, mortality) is more than 160 µg/mL; with Cyprinus carpio it was more than 100 µg/mL; with Lepomis macrochirus, more than 100 µg/mL; with Tagia sp., more than 1000 mg/kg. For the same compound, the NOEL in the series on Anas platyrhynchos (reproductive) worked out at 2.95 mg/kg-day. Also, the LR50 in the series on Poecilus cupreus is more than 15 g/ha.

The record behind these values is EPA's ToxValDB 9.5 (doi:10.2903/j.efsa.2014.3815).
